ChEMBL document CHEMBL1240321, “Cyclostreptin binds covalently to microtubule pores and lumenal taxoid binding sites” (Nat Chem Biol, 2007)
pIC50: −log10 of the molar value. Active and inactive are the calls of the source. No cut-off for these calls is given here.

Assays:
[1] = Induction of mitotic cell cycle arrest in potoroo PtK2 cells assessed as accumulation of cells at SubG1 phase at 5 uM treated for 7 hrs, washed followed by 16 hrs incubation by flow cytometry (Rvb= 2%); assay type: functional, Potorous tridactylus
[2] = Induction of micronucleation in potoroo PtK2 cells at 10 uM after 7 hrs by flow cytometry; assay type: functional, Potorous tridactylus
[3] = Displacement of [3H]paclitaxel from microtubule assessed as bound radioligand level at 20 uM treated before radioligand addition by competitive binding assay
[4] = tested on: PtK2; experiment: Induction of micronucleation in potoroo PtK2 cells at 10 uM after 7 hrs by flow cytometry; conditions: Potorous tridactylus
[5] = Induction of mitotic cell cycle arrest in potoroo PtK2 cells assessed as accumulation of cells at G2+M phase at 5 uM treated for 7 hrs, washed followed by 48 hrs incubation by flow cytometry (Rvb= 22.3%); assay type: functional, Potorous tridactylus
[6] = tested on: PtK2; experiment: Induction of microtubule bundle formation in potoroo PtK2 cells at 2 uM after 7 hrs by flow cytometry; assay type: cell-based; conditions: Potorous tridactylus
[7] = tested on: A549; experiment: Induction of mitotic cell cycle arrest in human A549 cells assessed as accumulation of cells at SubG1 phase at 100 nM after 24 hrs by flow cytometry (Rvb= 25%); assay type: functional
[8] = tested on: PtK2; experiment: Induction of microtubule bundle formation in potoroo PtK2 cells at 2 uM treated for 7 hrs followed by compound washout measured after 48 hrs by flow cytometry; assay type: cell-based; conditions: Potorous tridactylus
[9] = Displacement of [3H]discodermolide from microtubule assessed as bound radioligand level at 20 uM treated after radioligand addition by competitive binding assay
[10] = Binding affinity to microtubule at 30 uM after 30 mins by HPLC-MS analysis
[11] = tested on: A2780; experiment: Cytotoxicity against human A2780 cells; assay type: functional, cell-based
[12] = tested on: PtK2; experiment: Induction of micronucleation in potoroo PtK2 cells at 2 uM treated for 7 hrs followed by compound washout measured after 48 hrs by flow cytometry; assay type: functional, cell-based; conditions: Potorous tridactylus
[13] = tested on: PtK2; experiment: Induction of microtubule bundle formation in potoroo PtK2 cells at 5 uM treated for 7 hrs followed by compound washout measured after 48 hrs by flow cytometry; assay type: cell-based; conditions: Potorous tridactylus
[14] = Induction of mitotic cell cycle arrest in potoroo PtK2 cells assessed as accumulation of cells at SubG1 phase at 5 uM treated for 7 hrs, washed followed by 48 hrs incubation by flow cytometry (Rvb= 1.1%); assay type: functional, Potorous tridactylus
[15] = Cytotoxicity against human 1A9PTX22 cells; assay type: functional, cell-based; conditions: 1A9/ptx-22
[16] = Induction of mitotic cell cycle arrest in potoroo PtK2 cells assessed as accumulation at 100 nM after 24 hrs by flow cytometry (Rvb= 26.3%)
[17] = Induction of mitotic cell cycle arrest in potoroo PtK2 cells assessed as accumulation of cells at G1/G0 phase at 2 uM treated for 7 hrs, washed followed by 48 hrs incubation by flow cytometry (Rvb= 65.8%); assay type: functional, Potorous tridactylus
[18] = Induction of mitotic cell cycle arrest in potoroo PtK2 cells assessed as accumulation of cells at G2+M phase at 5 uM after 7 hrs by flow cytometry (Rvb= 22.1%); assay type: functional, Potorous tridactylus
[19] = Induction of micronucleation in potoroo PtK2 cells at 2 uM treated for 7 hrs followed by compound washout measured after 16 hrs by flow cytometry; assay type: functional, Potorous tridactylus
[20] = Induction of mitotic cell cycle arrest in potoroo PtK2 cells assessed as accumulation of cells at G2+M phase at 2 uM after 7 hrs by flow cytometry (Rvb= 22.1%); assay type: functional, Potorous tridactylus
[21] = Cytotoxicity against human 1A9PTX10 cells; assay type: functional, cell-based; conditions: 1A9/ptx-10
[22] = Induction of mitotic cell cycle arrest in potoroo PtK2 cells assessed as accumulation of cells at G2+M phase at 2 uM treated for 7 hrs, washed followed by 48 hrs incubation by flow cytometry (Rvb= 22.3%); assay type: functional, Potorous tridactylus
[23] = Induction of mitotic cell cycle arrest in potoroo PtK2 cells assessed as accumulation of cells at G2+M phase at 5 uM treated for 7 hrs, washed followed by 16 hrs incubation by flow cytometry (Rvb= 23%); assay type: functional, Potorous tridactylus
[24] = tested on: PtK2; experiment: Induction of micronucleation in potoroo PtK2 cells at 5 uM treated for 7 hrs followed by compound washout measured after 16 hrs by flow cytometry; conditions: Potorous tridactylus
[25] = Induction of mitotic cell cycle arrest in potoroo PtK2 cells assessed as accumulation of cells at SubG1 phase at 2 uM treated for 7 hrs, washed followed by 16 hrs incubation by flow cytometry (Rvb= 2%); assay type: functional, Potorous tridactylus
[26] = Induction of mitotic cell cycle arrest in potoroo PtK2 cells assessed as accumulation of cells at G1/G0 phase at 2 uM after 7 hrs by flow cytometry (Rvb= 15.5%); assay type: functional, Potorous tridactylus
[27] = Displacement of [3H]epothilone B from microtubule assessed as bound radioligand level at 20 uM treated after radioligand addition by competitive binding assay
[28] = Induction of mitotic cell cycle arrest in potoroo PtK2 cells assessed as accumulation at S phase at 2 uM treated for 7 hrs, washed followed by 48 hrs incubation by flow cytometry (Rvb= 10.7%); assay type: functional, Potorous tridactylus
[29] = Induction of mitotic cell cycle arrest in potoroo PtK2 cells assessed as accumulation at S phase at 5 uM treated for 7 hrs, washed followed by 16 hrs incubation by flow cytometry (Rvb= 16%); assay type: functional, Potorous tridactylus
[30] = Induction of mitotic cell cycle arrest in potoroo PtK2 cells assessed as accumulation at S phase at 5 uM treated for 7 hrs, washed followed by 48 hrs incubation by flow cytometry (Rvb= 10.7%); assay type: functional, Potorous tridactylus
[31] = Induction of mitotic cell cycle arrest in potoroo PtK2 cells assessed as accumulation at S phase at 5 uM after 7 hrs by flow cytometry (Rvb= 15.5%); assay type: functional, Potorous tridactylus
[32] = Induction of mitotic cell cycle arrest in human A2780AD cells assessed as accumulation of cells at G1/G0 phase at 100 nM after 24 hrs by flow cytometry (Rvb= 59.2%); assay type: functional, A2780 ADR
[33] = tested on: PtK2; experiment: Induction of micronucleation in potoroo PtK2 cells at 5 uM treated for 7 hrs followed by compound washout measured after 48 hrs by flow cytometry; assay type: functional, cell-based; conditions: Potorous tridactylus
[34] = tested on: A549; experiment: Cytotoxicity against human A549 cells; assay type: functional, cell-based
[35] = Induction of mitotic cell cycle arrest in potoroo PtK2 cells assessed as accumulation of cells at G1/G0 phase at 5 uM treated for 7 hrs, washed followed by 16 hrs incubation by flow cytometry (Rvb= 59%); assay type: functional, Potorous tridactylus
[36] = tested on: PtK2; experiment: Induction of micronucleation in potoroo PtK2 cells at 2 uM treated for 7 hrs followed by compound washout measured after 16 hrs by flow cytometry; conditions: Potorous tridactylus
[37] = tested on: A549; experiment: Induction of mitotic cell cycle arrest in human A549 cells assessed as accumulation of cells at G2+M phase at 100 nM after 24 hrs by flow cytometry (Rvb= 19.6%); assay type: functional
[38] = Cytotoxicity against human A2780AD cells; assay type: functional, cell-based; conditions: A2780 ADR
[39] = Induction of mitotic cell cycle arrest in potoroo PtK2 cells assessed as accumulation of cells at G1/G0 phase at 5 uM after 7 hrs by flow cytometry (Rvb= 60%); assay type: functional, Potorous tridactylus

## CC1=C[C@H]2[C@@H](O)[C@H](C)[C@@H](O)[C@@H]2[C@H]2[C@@H]3C4=C5O[C@](C)(CC[C@@H](OC4=O)[C@H]5C)[C@@H]3C[C@@H]12 [CYCLOSTREPTIN]
[1]
  Activity: 3.4%
[2]
  Activity: 4%
[3]
  Activity: 25%
[4]
  Activity: 4%
[5]
  Activity: 77.1%
[6]
  Activity: 4%
[7]
  Activity: 15%
[8]
  Activity: Active
[9]
  Activity: 96%
[10]
  Activity: Active
[11]
  pIC50: 7.36
[12]
  Activity: Active
[13]
  Activity: Active
[14]
  Activity: 5.4%
[15]
  pIC50: 7.24
[16]
  Activity: 65%
[17]
  Activity: 8.7%
[18]
  Activity: 35%
[19]
  Activity: 70%
[20]
  Activity: 32%
[21]
  pIC50: 6.62
[22]
  Activity: 75%
[23]
  Activity: 65.5%
[24]
  Activity: 70%
[25]
  Activity: 3.5%
[26]
  Activity: 18%
[27]
  Activity: 79%
[28]
  Activity: 10%
[29]
  Activity: 12.6%
[30]
  Activity: 8.6%
[31]
  Activity: 17.5%
[32]
  Activity: 6.6%
[33]
  Activity: Active
[34]
  pIC50: 7.34
[35]
  Activity: 18.5%
[36]
  Activity: 70%
[37]
  Activity: 72%
[38]
  pIC50: 7.29
[39]
  Activity: 45.2%
